Assays:
Assay type in all cases: cell-based, murine
[1] = system: parental ES cell line (D3 ES cells); assay: Self-renewal, differentiation and growth of ES cells in serum- and feeder-free culture with LIF and MAP kinase inhibitors
Experimental: (§1) FIG. 5A-5C. Effect of MAPK inhibitors on ES cell self-renewal. (A) Phase contrast image of parental ES cells cultured for 8 days (left), Bcl-2 ES cells cultured for 14 days (middle), and parental ES cells cultured with PD98059 for 14 days (right) in serum- and feeder-free conditions. (B) Growth curve of Bcl-2 ES cells (square) and parental ES cells cultured with 12.5 μM of PD98059 (circle) in serum- and feeder-free conditions. (C) Colony formation activity of parental (p) ES cells cultured without (Non) or with PD98059, and Bcl-2 ES cells at low cell density. Cultures were initiated with 200 cells per well (12 well-plate) and colonies were enumerated 7 days later.
(§2) Cell culture. D3 ES cells (Doetschman et al. (1985) J. Embryol. Exp. Morphol. 87:27-45) were maintained as previously described (Yamane et al. (1997) Blood 90:3516-3523), and clones expressing human Bcl-2 were established by co-transfecting parental D3 ES cells with the human Bcl2-IRES-EGFP transgene under control of the CAG promoter, and a puromycin resistance gene cassette. Bcl-2 ES cell clones were selected and expanded in the presence of puromycin. For serum-free cultures, ES cells are maintained in X-VIVO 15 (Cambrex) supplemented with 2 mM GlutaMax-1 (Gibco), 0.1 mM 2-mercaptoethanol, 1,000 U/mL ESGRO (Chemicon International), 100 U/mL penicillin (Gibco), and […] streptomycin (Gibco) on gelatin-coated dishes. Alternatively, IMDM/F12 (1:1) (Gibco) supplemented with 2 mM GlutaMax-1, 0.1 mM 2-mercaptoethanol, 0.1% polyvinyl alcohol (Sigma), 1× Insulin-Transferin-Selenium-X (Gibco), 1,000 U/mL ESGRO, 100 U/mL penicillin, and 100 mg streptomycin was used where indicated. Cells were dissociated with Cell Dissociation Buffer (Enzyme-Free, Hanks'-based, Gibco).
MAP kinase inhibitors. 1 μM SB203580 (Calbiochem) and 12.5 μM PD98059 (Calbiochem) were used as described (Qi et al. (2004) Proc. Natl. Acad. Sci USA 101, 6027-6032; Burdon et al. (1999) Dev. Biol. 210, 30-43).

[2] = system: parental ES cells; assay: Colony formation activity at low cell density in serum- and feeder-free conditions; settings: 200 cells per well (12 well-plate), colonies enumerated 7 days later (FIG. 5C)
Experimental: as §1
as §2, with “Alternatively, IMDM/F12 (1:1) (Gibco) supplemented with 2 mM GlutaMax-1, 0.1 mM 2-mercaptoethanol, 0.1% polyvinyl alcohol (Sigma), 1× Insulin-Transferin-Selenium-X (Gibco), 1,000 U/mL ESGRO, 100 U/mL penicillin, and 100 mg streptomycin was used where indicated. Cells were dissociated with Cell Dissociation Buffer (Enzyme-Free, Hanks'-based, Gibco).” left out

[3] = system: parental cell line (D3 ES cells); assay: Viability of the parental cell line in serum- and feeder-free conditions with BMP; settings: addition of BMP
Source text: as §2

[4] = system: Bcl-2, Bcl-xL, Mcl-1, Bax; assay: Western blot analysis of Bcl-2 family members after BMP stimulation; settings: parental ES cells, serum- and feeder-free, treated with BMP4 for 6 hours (FIG. 4B)
Experimental: FIG. 4A-4B. Western blot analysis for Smad proteins and Bcl-2 family members. (A) Cell lysates of parental cells cultured in conventional conditions with serum [p(serum)], a Bcl-2 clone in serum and feeder-free conditions untreated (Bcl-2), or treated with BMP4 for 90 minutes (Bcl-2+BMP4) were analyzed for the presence of phospho-Smad1/5/8 by western blotting (upper panel). The same membrane was stripped and reprobed with anti-actin antibody (lower panel). The band denoted by an asterisk is a product of non-specific staining. (B) Western blot analysis of Bcl-2 family members was performed for parental ES cells in conventional conditions with serum (serum), and for parental ES cells in serum- and feeder-free conditions without (Non) or treated with BMP4 for 6 hours (BMP4).
Western blots. Cells were lysed in 50 mM Tris-Cl (pH7.5)/150 mM NaCl/1% Triton-X/1% protease inhibitor cocktail set III (Calbiochem)/1 mM EDTA/1 mM Na3Vo4/1 mM NaF and proteins were separated by SDS-PAGE under denaturing conditions and transferred to Immobilon-P membrane (Miilipore). After blocking with 5% milk, the membrane was incubated with primary antibodies against phospho-Smad1/5/8 (Cell Signaling Technology), actin (Sigma), Bcl-2 (Dako), Bcl-xL (BD Bioscience), Mcl-1 (ABGENT), or Bax (BD Bioscience), washed, and then incubated with HRP-conjugated secondary antibodies. […]

COc1cccc(-c2cc(=O)c3ccccc3o2)c1N [PD98059]
growth speed of parental cell line with inhibitor compared with Bcl-2 ES cells ([1]; 12.5 μM PD98059, serum- and feeder-free (FIG. 5B)): somewhat faster | differentiated cells which appeared during culture ([1]; parental ES cell line, 12.5 μM PD98059, serum- and feeder-free, 14 days (FIG. 5A)): dramatically reduced | continuous growth in serum- and feeder-free conditions in the presence of LIF without Bcl-2 ([1]; parental ES cells, 12.5 μM PD98059, crisis upon continued passaging (FIG. 5B)): supported the continuous growth | colony formation at low cell density [2]: could never support the colony formation

C[S+]([O-])c1ccc(-c2nc(-c3ccncc3)c(-c3ccc(F)cc3)[nH]2)cc1 (stereo not shown) [SB 203580]
effect on self-renewal and differentiation of ES cells ([1]; 1 μM SB203580, serum- and feeder-free conditions): did not show any effect

B1: BMP: bone morphogenic protein; BMP4 used for stimulation of ES cells (protein, UniProt P12644 293-408, looked up)
Bone morphogenetic protein 4: SPKHHSQRARKKNKNCRRHSLYVDFSDVGWNDWIVAPPGYQAFYCHGDCPFPLADHLNSTNHAIVQTLVNSVNSSIPKACCVPTELSAISMLYLDEYDKVVLKNYQEMVVEGCGCR
viability of the parental cell line [3]: did not improve viability | expression of Bcl-2, Bcl-xL, Mcl-1 anti-apoptotic proteins [4]: neither Bcl-2, Bcl-xL, or Mcl-1 anti-apoptotic proteins are up-regulated

— US7641897B2, “Feeder layer and serum independent embryonic stem cells” (The Board of Trustees of the Leland Stanford Junior …, priority 2004, dated 2010)
